Data published in patent publication US4840966A, “Method of treating hypertension” (Mitsui Norin Co., Ltd., priority 1987, dated 1989).
Like-named read-outs stand apart in the source and are kept apart here.

What was measured:
carboxypeptidase A = molecular target: T1, carboxypeptidase A (Bos taurus, UniProt P00730); test: Inhibition of carboxypeptidase A; format: biochemical
T1 sequence (P00730 111-419): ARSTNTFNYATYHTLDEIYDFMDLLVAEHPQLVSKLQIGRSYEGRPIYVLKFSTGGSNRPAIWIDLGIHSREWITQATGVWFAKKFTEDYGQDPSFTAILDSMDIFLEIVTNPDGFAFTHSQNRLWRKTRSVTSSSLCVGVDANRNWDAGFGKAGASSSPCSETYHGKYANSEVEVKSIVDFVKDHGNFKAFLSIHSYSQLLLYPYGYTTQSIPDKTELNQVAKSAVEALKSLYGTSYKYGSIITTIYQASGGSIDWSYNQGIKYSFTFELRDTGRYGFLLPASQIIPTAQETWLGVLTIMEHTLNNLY

[1] = Acute oral toxicity in mice (LD50); conditions: mouse, in vivo, male ICR mice, 8 weeks old, read-out: LD50 of one week
[2] = molecular target: T2, ACE (Angiotensin I converting enzyme) (Sus scrofa, UniProt F1RRW5); test: Inhibition of ACE (Hip-His-Leu substrate, O-phthal aldehyde fluorescence); format: biochemical, pig
T2 construct: the ACE obtained from renal cortex of pig; from tissue; host or cells: renal cortex of pig
T2 sequence (F1RRW5 34-1309): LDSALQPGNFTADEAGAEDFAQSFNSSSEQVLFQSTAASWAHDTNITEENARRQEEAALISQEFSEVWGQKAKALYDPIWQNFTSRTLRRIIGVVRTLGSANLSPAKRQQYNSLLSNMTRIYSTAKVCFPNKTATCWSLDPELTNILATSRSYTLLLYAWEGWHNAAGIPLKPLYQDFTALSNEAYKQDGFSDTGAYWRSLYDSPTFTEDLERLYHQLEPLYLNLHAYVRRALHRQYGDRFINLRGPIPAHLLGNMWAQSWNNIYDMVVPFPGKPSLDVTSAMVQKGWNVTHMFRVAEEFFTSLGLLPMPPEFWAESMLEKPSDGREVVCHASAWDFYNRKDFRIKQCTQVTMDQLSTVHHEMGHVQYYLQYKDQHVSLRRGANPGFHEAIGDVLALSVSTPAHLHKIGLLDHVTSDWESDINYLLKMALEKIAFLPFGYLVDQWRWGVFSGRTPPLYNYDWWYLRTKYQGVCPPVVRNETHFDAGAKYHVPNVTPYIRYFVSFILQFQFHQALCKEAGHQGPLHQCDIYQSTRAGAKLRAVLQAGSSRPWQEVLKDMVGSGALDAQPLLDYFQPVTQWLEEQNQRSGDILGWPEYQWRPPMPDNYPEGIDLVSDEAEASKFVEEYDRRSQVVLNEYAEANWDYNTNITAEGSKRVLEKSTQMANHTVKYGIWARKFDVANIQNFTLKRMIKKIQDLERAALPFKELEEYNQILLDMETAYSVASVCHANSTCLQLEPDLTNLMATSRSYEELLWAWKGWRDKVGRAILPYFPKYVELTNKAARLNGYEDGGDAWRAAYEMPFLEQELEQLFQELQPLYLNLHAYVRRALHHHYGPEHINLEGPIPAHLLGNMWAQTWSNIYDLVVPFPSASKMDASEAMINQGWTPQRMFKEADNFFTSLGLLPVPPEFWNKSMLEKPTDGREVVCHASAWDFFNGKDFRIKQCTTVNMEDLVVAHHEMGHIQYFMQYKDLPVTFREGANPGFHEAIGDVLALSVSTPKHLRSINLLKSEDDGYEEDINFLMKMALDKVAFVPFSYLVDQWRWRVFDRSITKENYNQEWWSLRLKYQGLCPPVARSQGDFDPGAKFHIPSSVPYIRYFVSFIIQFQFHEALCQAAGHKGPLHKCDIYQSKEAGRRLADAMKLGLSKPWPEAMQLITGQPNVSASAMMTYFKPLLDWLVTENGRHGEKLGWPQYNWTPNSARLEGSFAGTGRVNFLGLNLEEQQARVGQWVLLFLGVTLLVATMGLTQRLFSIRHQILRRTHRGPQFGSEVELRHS
Description: The activity of ACE inhibition was expressed by the equation
in which S was the intensity of the fluorescence in the above described procedure with the sample solution, A was the value of the blank test by replacing the sample solution with the same volume of water and B was the value obtained by replacing the enzyme solution with the same volume of pure water.

[3] = tested on: Spontaneously Hypertensive Rats; test: Systolic blood pressure of SHR fed epigallocatechin gallate in the diet (FIG. 4); format: in vivo; conditions: 8 weeks old, 0.5% in diet, after seven weeks feeding, control continued to rise
Description: Three SHR (Spontaneously Hypertensive Rats) of 8 weeks old were fed on the diet which consisted of 99.5% of normal diet and 0.5% of epigallocatechin gallate mixed together. As a control two SHR of the same stock were fed on a 100% normal diet. After seven weeks feeding the blood pressure of tea polyphenol fed group levelled off while the blood pressure of the control group continued to rise. In FIG. 4, the curve A denotes the systolic blood pressure of control group while B denotes the systolic blood pressure of test group.

[4] = ACE from renal cortex of pig, Hip-His-Leu substrate, 37° C.

| IC50 (carboxypeptidase A) | IC50 [2, 4] | Compound | LD50 at 168 h [1] | IC50 [2] | blood pressure (in words) [3] |
| --- | --- | --- | --- | --- | --- |
| > 5000 µM | 400 µM | O=c1c(O)cc([C@H]2Oc3cc(O)cc(O)c3C[C@H]2O)cc2c([C@H]3Oc4cc(O)cc(O)c4C[C@H]3O)cc(O)c(O)c12 [Free theaflavin, free theaflavin] |  |  |  |
| > 5000 µM | 115 µM | O=C(O[C@@H]1Cc2c(O)cc(O)cc2O[C@@H]1c1cc(O)c(=O)c2c(O)c(O)cc([C@H]3Oc4cc(O)cc(O)c4C[C@H]3O)c2c1)c1cc(O)c(O)c(O)c1 [Theaflavin monogallate A, theaflavin monogallate A] |  |  |  |
| > 5000 µM | 110 µM | O=C(O[C@@H]1Cc2c(O)cc(O)cc2O[C@@H]1c1cc(O)c(O)c2c(=O)c(O)cc([C@H]3Oc4cc(O)cc(O)c4C[C@H]3O)cc12)c1cc(O)c(O)c(O)c1 [Theaflavin monogallate B, theaflavin monogallate B] |  |  |  |

| Compound | IC50 (carboxypeptidase A) | IC50 [2, 4] | LD50 at 168 h [1] | IC50 [2] | blood pressure (in words) [3] |
| --- | --- | --- | --- | --- | --- |
| O=C(O[C@@H]1Cc2c(O)cc(O)cc2O[C@@H]1c1cc(O)c(O)c(O)c1)c1cc(O)c(O)c(O)c1 [(-)-Epigallocatechin gallate, (-)-epigallocatechin gallate] | 3000 µM |  | 2310 mg/kg | 90 µM | levelled off |
